Literature values as cited in patent publication US20010001790A1, “TOPICAL FORMULATIONS COMPRISING SKIN PENETRATION AGENTS AND THE USE THEREOF” (priority 1999, published 2001).

Conditions: propylene glycol vehicle; upon addition of cetyl alcohol at 3% by weight

CC1(C)O[C@@H]2C[C@H]3[C@@H]4CCC5=CC(=O)C=C[C@]5(C)[C@@]4(F)[C@@H](O)C[C@]3(C)[C@]2(C(=O)CO)O1 [triamcinolone acetonide]
reduction of skin penetration of the pharmaceutically active agent: 39%
